Drawing on ChEMBL document CHEMBL1149948, “Chemical and enzymatic synthesis of high-affinity selectin ligands” (Bioorg Med Chem Lett, 1997), this text covers IC50 for 4 molecules.

SMILES strings stand for the structures.

One assay has as its target T1, P-selectin (Homo sapiens, UniProt P16109).
T1 sequence (P16109 whole entry): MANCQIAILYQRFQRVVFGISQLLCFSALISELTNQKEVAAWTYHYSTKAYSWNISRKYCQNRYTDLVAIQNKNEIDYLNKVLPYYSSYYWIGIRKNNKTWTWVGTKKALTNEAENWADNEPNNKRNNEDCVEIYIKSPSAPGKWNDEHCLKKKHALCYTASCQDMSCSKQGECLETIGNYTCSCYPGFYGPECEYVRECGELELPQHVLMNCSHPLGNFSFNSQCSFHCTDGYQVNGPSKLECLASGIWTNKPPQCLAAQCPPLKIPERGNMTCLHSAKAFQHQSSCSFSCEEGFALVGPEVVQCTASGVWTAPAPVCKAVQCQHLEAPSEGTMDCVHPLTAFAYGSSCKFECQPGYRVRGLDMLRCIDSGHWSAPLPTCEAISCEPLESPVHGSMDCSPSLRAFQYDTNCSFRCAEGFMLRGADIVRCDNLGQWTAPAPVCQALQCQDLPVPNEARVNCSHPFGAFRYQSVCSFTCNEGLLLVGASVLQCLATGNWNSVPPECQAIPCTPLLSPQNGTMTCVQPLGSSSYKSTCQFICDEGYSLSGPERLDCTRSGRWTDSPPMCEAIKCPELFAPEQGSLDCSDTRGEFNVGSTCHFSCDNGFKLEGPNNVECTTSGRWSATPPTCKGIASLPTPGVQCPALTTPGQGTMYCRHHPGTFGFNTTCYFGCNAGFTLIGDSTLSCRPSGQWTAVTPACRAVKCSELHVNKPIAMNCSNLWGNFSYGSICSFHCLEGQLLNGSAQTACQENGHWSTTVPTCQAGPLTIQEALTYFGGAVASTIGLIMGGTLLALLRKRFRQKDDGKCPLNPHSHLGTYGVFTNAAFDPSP
Description: Tested for its ability to inhibit HL60 cell adhesion to P-selectin-IgG fusion proteins. The assay is classed as cell-based, HL-60.

The target of another assay is T2, E-selectin (Homo sapiens, UniProt P16581).
T2 sequence (P16581 whole entry): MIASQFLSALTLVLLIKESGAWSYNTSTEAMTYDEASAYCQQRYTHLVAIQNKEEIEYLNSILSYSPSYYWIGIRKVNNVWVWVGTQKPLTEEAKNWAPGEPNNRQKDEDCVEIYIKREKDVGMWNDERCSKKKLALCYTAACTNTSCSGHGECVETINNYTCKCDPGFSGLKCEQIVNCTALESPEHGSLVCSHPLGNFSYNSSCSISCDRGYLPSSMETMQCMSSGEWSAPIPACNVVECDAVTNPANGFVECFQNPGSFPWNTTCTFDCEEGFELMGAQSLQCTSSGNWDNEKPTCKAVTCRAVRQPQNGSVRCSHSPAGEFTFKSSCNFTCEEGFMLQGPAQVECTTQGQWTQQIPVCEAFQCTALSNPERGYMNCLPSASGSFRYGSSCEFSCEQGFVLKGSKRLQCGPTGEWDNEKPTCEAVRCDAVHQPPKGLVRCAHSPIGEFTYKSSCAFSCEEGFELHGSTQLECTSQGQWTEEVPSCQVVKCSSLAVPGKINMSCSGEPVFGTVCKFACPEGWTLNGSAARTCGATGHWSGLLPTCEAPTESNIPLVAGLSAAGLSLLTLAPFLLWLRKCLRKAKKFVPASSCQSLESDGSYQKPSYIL
Nature of the assay: Tested for its ability to inhibit HL60 cell adhesion to Selectin E IgG fusion proteins. The assay is classed as cell-based, HL-60.

As to `CC(=O)N[C@@H]1[C@H](OCCCCCCN)O[C@@H](CO)[C@@H](O[C@@H]2O[C@@H](CO)[C@H](O)[C@H](O[C@]3(C(=O)O)C[C@@H](O)[C@@H](N)[C@H]([C@H](O)[C@H](O)CO)O3)[C@@H]2O)[C@@H]1O[C@@H]1O[C@@H](C)[C@@H](O)[C@H](O)[C@@H]1O`, the IC50 (commonly the concentration at which inhibition is half-maximal) is 1000 µM at P-selectin and 900 µM against E-selectin.

`CC(=O)N[C@@H]1[C@H](OCCCCCCN)O[C@@H](CO)[C@@H](O[C@@H]2O[C@@H](CO)[C@H](O)[C@H](O[C@]3(C(=O)O)C[C@@H](O)C[C@H]([C@H](O)[C@H](O)CO)O3)[C@@H]2O)[C@@H]1O[C@@H]1O[C@@H](C)[C@@H](O)[C@H](O)[C@@H]1O`: the IC50 at P-selectin and against E-selectin was 700 µM each time.

For the molecule `CC(=O)N[C@@H]1[C@H](OCCCCCCN)O[C@@H](CO)[C@@H](O[C@@H]2O[C@@H](CO)[C@H](O)[C@H](O[C@]3(C(=O)O)C[C@@H](O)[C@@H](NC(C)=O)[C@H]([C@H](O)[C@H](O)CO)O3)[C@@H]2O)[C@@H]1O[C@@H]1O[C@@H](C)[C@@H](O)[C@H](O)[C@@H]1O`, it took 2000 µM to reach half-maximal inhibition on P-selectin (hl-60) (IC50).

For `C[C@@H]1O[C@@H](O[C@@H]2[C@H](N)[C@H](OCCCCCCN)O[C@@H](CO)[C@H]2O[C@@H]2O[C@@H](CO)[C@H](O)[C@H](O[C@]3(C(=O)O)C[C@@H](O)[C@@H](N)[C@H]([C@H](O)[C@H](O)CO)O3)[C@@H]2O)[C@@H](O)[C@@H](O)[C@@H]1O`, the figures for the IC50 against P-selectin and at E-selectin were 160 µM and 270 µM, respectively.
